Usually melting point stands for the temperature of the solid-liquid transition.

As to `COc1cc(C)c(C=CC(C)=CC=C(C)C(=O)O)cc1C`, the melting point fell in the range of 222 to 224 °C.
`O=[N+]([O-])c1ccccc1Nc1ccccc1O` registered a melting point of 67 to 70 °C.
The value for `CCOC(=O)NN(C)C(=O)Nc1ccc(OCc2ccc(Cl)cc2)cc1F` was 108 °C; that for `CCOC(=O)COc1cc2cc(C(O)CC)sc2c(Cl)c1Cl` (stereo not drawn) was 69 to 70 °C.
`O=P(O)(O)OP(=O)(O)O`: the melting point stood at 212 °C.
`O=C(CBr)C(O)(c1ccccc1)C1CCC1` (stereo not drawn) came in with a melting point of 79 to 80 °C.
On to `O=C(Nc1ccccc1Oc1ccc(C(=O)O)c(C(=O)O)c1)c1cccc([N+](=O)[O-])c1`, for which the melting point lay in the range of 184 to 190 °C.
Consider `CCOC(=O)/C=C/c1cn(Cc2ccc3cc(OCc4ccccc4)ccc3c2)cc1-c1ccccc1`, for which the melting point is 119 to 120 °C.
The value for `Cc1ccc2nc(-c3ccc(N)c(I)c3)sc2c1` was 176 to 178 °C; that for `Cc1cn(S(C)(=O)=O)c2c1C(=O)CC(c1ccccc1F)C2` (stereo not drawn) was 130 to 134 °C; that for `O=S(=O)(C(=CNc1ccc(Br)cn1)S(=O)(=O)c1ccccc1)c1ccccc1` was 177 to 179 °C.
The value for `COC(=O)NC1Cc2ccc([N+](=O)[O-])cc2C1OC(C)=O` (stereo not drawn) was 164 to 167 °C; that for `COc1cc(NC2CCCCC2)c2ccccc2c1OC(C)=O` was 134 to 136 °C.
For the molecule `CCCCCc1scc2c1n(C(=O)OC)c(=O)n2C(=O)OC`, the melting point fell in the range of 99 to 102 °C.
The value for `CC(Nc1ccc(Cl)c(Cl)c1)C(=O)O` (stereo not drawn) was 148 to 149 °C; that for `COc1ccc(-c2nc(CCOc3ccc(CC4OC(=O)NC4=O)cc3)c(C)o2)cc1` (stereo not drawn) was 141 to 143 °C; that for `CC(C)(C)c1ccc(OCC(O)CN2CCC3(CC2)CSC2=C(O3)c3cc(Cl)ccc3C(=O)C2=O)cc1` (stereo not drawn) was 94 to 97 °C.
The value for `CC(C)(NCc1ccc(Oc2ccc3c(c2)OCO3)cc1)C(N)=O` was 123 to 124 °C; that for `CC(=O)NCCC1=CCc2ccc3c(c21)CCO3` was 153 to 155 °C; that for `COc1ccc(-c2cc(N)n[nH]2)cc1OC` was 124 to 125 °C.
Molecule `CCc1cccc(-c2[nH]c(C(C)C)nc2-c2cccc(-c3ccc(S(C)(=O)=O)cc3)c2)n1` registered a melting point of 108 to 110 °C.
On to `COC1CCC(=O)N1S(=O)(=O)C=Cc1ccccc1` (stereo not drawn), for which the melting point was 98 to 99 °C.
The molecule `c1ccc(Sc2cc(Sc3ccccc3)c3ccc4c(Sc5ccccc5)cc(Sc5ccccc5)c5ccc2c3c54)cc1` gave a melting point of 230 °C.
The value for `CCn1c2ccccc2c2cc(Nc3nccc(-c4ccc(N5CCNCC5)nc4)n3)ccc21` was 131 to 137 °C; that for `O=[N+]([O-])c1cccc(CSc2nc3cnccc3[nH]2)c1` was 208 to 210 °C; that for `CC1OC(=S)Nc2ccc(-c3cccc(F)c3)cc21` (stereo not drawn) was 173 to 174 °C.
The value for `O=C1CCCCC1C(C[N+](=O)[O-])c1ccc(OCc2ccccc2)cc1` (racemic) was 143 to 144 °C.
`CC1(C)CCC(=O)CC1S(=O)(=O)c1ccccc1` (stereo not drawn) returned a melting point of 84 to 86 °C.
`O=c1ccc(Oc2ccc([N+](=O)[O-])cc2)c[nH]1`: the melting point is 214 to 217 °C.
For `CC(=O)NC(=O)c1ccc(OCCn2ccnc2)cc1`, the melting point was in the range of 164 to 165 °C.
As to `O=C(O)c1cn2c(ccc3ccc(Cl)cc32)n1`, the melting point was in the range of 288 to 289 °C.
The value for `CCN1c2ncc([N+](=O)[O-])cc2C(=O)N(C)c2cccnc21` was 148 to 149 °C; that for `CCOC(=O)C(C(=O)OCC)=C1NC(=O)N(Cc2ccccc2)C1=O` was 149 to 151 °C; that for `CCOC(=O)CCCCCc1c(O)c2cccnc2n(-c2ccccc2)c1=O` was 167 to 168 °C.
The value for `CC(C)(C)OC(=O)c1ncn2c1[C@@H]1CCCN1C(=O)c1c-2ccc(N)c1Br` was 245 to 246 °C; that for `CCCCN(C)c1nccc2ccc(C(=O)N[C@@H](Cc3cc(F)cc(F)c3)[C@H](O)CNCc3cccc(CC)c3)cc12` was 120 to 121 °C.
As for `CC(C)(C)c1ccc2c(O)c(-c3ccccc3)sc2n1`, the melting point was 181 to 183 °C.
As for `COc1cccc(OC(=O)c2ncn3c2[C@@H]2CCCN2C(=O)c2c(Cl)cccc2-3)c1`, the melting point lay within 184 to 185 °C.
The value for `OC1CSC(Oc2cccnc2-c2nnn[nH]2)C(O)C1O` (stereo not drawn) was 170 °C; that for `CC(c1ccc(-c2ccccc2)c(F)c1)c1csc(NC(=S)Nc2ccccc2)n1` (stereo not drawn) was 176 to 177 °C.
`N#Cc1c(SSc2cn(-c3c(Cl)cc(C(F)(F)F)cc3Cl)c(Cl)c2C#N)cn(-c2c(Cl)cc(C(F)(F)F)cc2Cl)c1Cl` showed a melting point of 220 °C.
Take `CCOC(=O)C(CC(=O)c1ccccc1Cl)(NC(C)=O)C(=O)OCC`: the melting point was in the range of 157 to 158 °C.
`CCCC(=O)Nc1ccc(CCn2c(=O)n(CCC)c(=O)c3[nH]c(C4CCCC4)nc32)cc1` gave a melting point above 270 °C.
As to `CCOC(=O)c1nc(-c2ccc(N3CCOCC3)cc2)[nH]c1-c1ccc(Cl)cc1`, the melting point turned out to be 215 °C.
The value for `CCc1nc2c(N)nc3cc(OCc4nc5ccccc5s4)ccc3c2s1` was 211 to 212 °C; that for `CCOC(=O)NC=Cc1ccc(OCC(O)CNC(C)(C)C)cc1` (stereo not drawn) was 99 to 100 °C.
`COCc1nc2cccc(C(=O)O)c2n1Cc1ccc(-c2ccccc2-c2nnn[nH]2)cc1` returned a melting point of 272 to 274 °C.
The value for `CCNc1cc(Oc2ccc(N)cc2)ncn1` was 143 to 145 °C; that for `COc1ccc(COC(=O)N[C@@H](Cc2ccccc2)C(=O)O)cc1` was 87 to 88 °C.
For the molecule `CCOc1ccccc1OC(c1ccccc1)C(O)CN` (stereo not drawn), the melting point was in the range of 98.5 to 99.9 °C.
In the case of `Cc1ccc(C)c(OCCCC(C)(C)C(=O)Nc2cccc([N+](=O)[O-])c2)c1`, the melting point fell in the range of 93 to 94 °C.
The value for `N=C(Nc1ccccc1)Nc1ncccc1OCc1ccc(Cl)cc1` was 173 to 174 °C.
Molecule `COCCOc1cc(OCCOC)c2c(=O)[nH]c(-c3cc(C)nc(C)c3)nc2c1` returned a melting point of 150 to 151 °C.
The molecule `CC(C)(C)CC(=O)c1c(-c2ccc3cc(O)ccc3c2)oc2ccccc12` yielded a melting point of 205 to 207 °C.
The value for `CCCC[C@H](NC(=O)[C@H](CC(C)C)NC(=O)c1cc2cccc(F)c2o1)C(=O)CSCc1ccco1` was 102 to 103 °C; that for `CN(C)c1nc2cc(NC(=O)c3c(C(=O)O)cnn3C)ccn2n1` was above 250 °C; that for `O=C(CCN1CCC2(CC1)OC(=O)c1ccccc12)c1ccccc1` was 108 to 110 °C.
Molecule `COc1ccc2nc(C(=O)O)cnc2c1` displayed a melting point of 248 °C.
As to `CCCC1=C(CCC)C1(C(=O)Nc1ccc(Br)cc1C)C(=O)OC`, the melting point is 52 to 54 °C.
The value for `NS(=O)(=O)CCCCCSc1ccc2nccn2n1` was 120 to 121 °C; that for `C#CCCN1CCC(O)(Cc2ccccc2)CC1` was 51 to 53 °C; that for `COc1ccc(Cn2c(=O)[nH]c(=O)c3c2nc(C(C)(C)C)n3Cc2ccccc2)cc1` was 170 to 172 °C.
Take `Nc1ccc(Sc2c(O)c3c(=O)n(-c4ccccc4)c4ccccc4c3oc2=O)cc1`: the melting point was above 300 °C.

The record behind these values is a melting point compilation (Tetko et al.; mined from patent text by program, amines drawn as free bases though some values may be those of a salt).
